Assay results published in PubChem BioAssay (NCI).
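Protocol summary: plate cells (96-well), add compound at 5 concentrations, incubate 48 h, interpolate endpoints linearly. At the TGI there is no net growth.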

Columns and labels:
Assay in all cases: growth of human tumour cells (NCI), 48 h
EKVX NSCLC = system: EKVX NSCLC
KM12 colon = system: KM12 colon
OVCAR-5 ovarian = system: OVCAR-5 ovarian
CAKI-1 renal = system: CAKI-1 renal
NCI-H460 lung = system: NCI-H460 lung
A549 NSCLC = system: A549 NSCLC
SK-MEL-28 melanoma = system: SK-MEL-28 melanoma
OVCAR-4 ovarian = system: OVCAR-4 ovarian
HT29 colon = system: HT29 colon
SF-295 CNS = system: SF-295 CNS
UO-31 renal = system: UO-31 renal
NCI-H23 lung = system: NCI-H23 lung
OVCAR-8 ovarian = system: OVCAR-8 ovarian
SF-539 CNS = system: SF-539 CNS
K-562 leukemia = system: K-562 leukemia
SK-MEL-2 melanoma = system: SK-MEL-2 melanoma
RXF 393 renal = system: RXF 393 renal
M14 melanoma = system: M14 melanoma
NCI/ADR-RES ovarian = system: NCI/ADR-RES ovarian
MCF7 breast = system: MCF7 breast

Row | SMILES | TGI (EKVX NSCLC) [µM] | TGI (KM12 colon) [µM] | TGI (OVCAR-5 ovarian) [µM] | TGI (CAKI-1 renal) [µM] | TGI (NCI-H460 lung) [µM] | TGI (A549 NSCLC) [µM] | TGI (SK-MEL-28 melanoma) [µM] | TGI (OVCAR-4 ovarian) [µM] | TGI (HT29 colon) [µM] | TGI (SF-295 CNS) [µM] | TGI (UO-31 renal) [µM] | TGI (NCI-H23 lung) [µM] | TGI (OVCAR-8 ovarian) [µM] | TGI (SF-539 CNS) [µM] | TGI (K-562 leukemia) [µM] | TGI (SK-MEL-2 melanoma) [µM] | TGI (RXF 393 renal) [µM] | TGI (M14 melanoma) [µM] | TGI (NCI/ADR-RES ovarian) [µM] | TGI (MCF7 breast) [µM]
1 | Cc1[nH]n(C(=O)Cc2ccccc2)c(=O)c1/C=C1\C(=O)C=Cc2ccccc21 | > 100 | > 100 | > 100 | > 100 | > 100 | > 100 | > 100 | > 100 | > 100 | > 100 | 79.9 | > 100 | > 100 | 75.2 | > 100 | – | – | – | – | –
2 | O=C(O)OC12CCCCCC1C(=O)C1CCCCC12 (stereo unspecified) | > 100 | > 100 | – | – | > 100 | > 100 | > 100 | > 100 | > 100 | > 100 | > 100 | > 100 | > 100 | – | > 100 | > 100 | > 100 | > 100 | – | –
3 | COc1ccc2nc3cc(Cl)ccc3c(NCCCN(C)CCCNc3ccc4ncn5c6ccccc6c(=O)c3c45)c2c1 | 7.15 | 4.99 | 6.47 | 4.36 | 0.504 | 1.55 | 7.38 | 3.95 | 0.69 | 5.37 | 7.28 | 6.13 | 8.52 | 5.26 | > 25 | 7.23 | 1.14 | 5.8 | > 14.1 | –
4 | O=C(c1ccccc1)N1N=C(C(F)(F)F)CC1(O)C(F)(F)F (stereo unspecified) | > 100 | > 100 | > 100 | – | > 100 | > 100 | > 100 | > 100 | > 100 | > 100 | > 100 | > 100 | > 100 | > 100 | > 100 | > 100 | – | > 100 | > 100 | > 100
5 | COc1ccc(C2OC2C(=O)C23CC4CC(CC(C4)C2)C3)cc1 (stereo unspecified) | > 100 | > 100 | > 100 | – | > 100 | > 100 | > 100 | > 100 | > 100 | > 100 | > 100 | > 100 | > 100 | > 100 | > 100 | – | > 100 | > 100 | > 100 | > 100
6 | CCn1c(O)c(C(=O)Nc2cccs2)c(=O)n(CC)c1=S | – | 32.6 | 61.5 | 75.9 | 34.5 | 49.8 | 32.2 | 70.9 | 31.9 | 35.6 | – | 30.5 | 60.2 | 33.1 | 53.6 | 32.8 | – | 43.8 | – | –
7 | O=C1/C(=C/c2ccc(Cl)cc2)NC(=S)N1CN1CCCCC1 | > 100 | > 100 | > 100 | – | – | > 100 | > 100 | – | 29.3 | > 100 | > 100 | > 100 | > 100 | – | > 100 | > 100 | – | > 100 | 72 | 82.1
8 | COC(=O)N1C=Cc2c(c(C)c3c([nH]c4ccccc43)c2C)C1C (stereo unspecified) | 32.1 | – | 34.5 | 34.5 | 70.3 | 42.2 | 31.1 | 26.1 | 26.5 | 28.6 | 34.2 | 36.2 | 39.8 | 35.3 | 37.7 | 34 | – | 71.1 | – | –
9 | COc1ccc2c(c1)SC1=Nc3sc4cc(OC)ccc4[n+]3CN12 | > 100 | 71.9 | > 100 | > 100 | 72.8 | > 100 | – | – | 56.3 | > 100 | > 100 | > 100 | > 100 | > 100 | > 100 | 65.3 | – | > 100 | > 100 | 31.4
10 | C/C(=C/C(=O)N(C)c1ccccc1Cl)O[Si](C(C)C)(C(C)C)C(C)C | 75.3 | > 100 | 34.8 | > 100 | 56.2 | > 100 | > 100 | > 100 | 34 | 74.8 | 39.3 | 62.2 | 47 | 38.3 | – | – | 34.5 | 70.9 | 39.6 | –
11 | CSc1ccc(/C=C2\N=C(c3ccccc3)N(NC(=O)c3c(Cl)c(Cl)c(Cl)c(Cl)c3-c3nc4ccccc4[nH]3)C2=O)cc1 | > 100 | 65.6 | > 100 | 85.3 | 28 | > 100 | > 100 | – | > 100 | > 100 | > 100 | 83 | > 100 | > 100 | 66.4 | > 100 | – | > 100 | > 100 | > 100
12 | CCCCCCCCCCCCCCCCCCCCCCC(=O)N[C@H]1CCc2cc(OC)c(OC)c(OC)c2-c2ccc(SC)c(=O)cc21 | > 100 | > 100 | > 100 | > 100 | 83 | > 100 | > 100 | > 100 | 99 | > 100 | > 100 | 62.2 | 85.6 | 41.3 | > 100 | – | – | 90.4 | – | –
13 | N#CC(NNC(=O)c1ccccc1O)c1ccccc1O (stereo unspecified) | – | > 100 | > 100 | 28.4 | > 100 | > 100 | > 100 | > 100 | > 100 | > 100 | 48.4 | > 100 | > 100 | 40.9 | > 100 | > 100 | > 100 | 29.7 | – | –
14 | CC1=C(C(N)=O)C(c2ccncc2)C(C#N)C(=O)N1 (stereo unspecified) | > 100 | > 100 | – | > 100 | > 100 | – | > 100 | > 100 | – | > 100 | > 100 | > 100 | – | > 100 | > 100 | > 100 | > 100 | > 100 | – | > 100
